Experimental data reported in ChEMBL document CHEMBL1201862, “PubChem BioAssay data set” (2004).
Values joined by “and” are separate entries in the source; they are usually repeats but may differ in a detail not shown here. Equal values may be shown once.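 Results reflect a 48-hour exposure of cells in 96-well plates to compound at five concentrations. Here, GI50 denotes the concentration required for 50% inhibition of growth.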 Active and inactive are the calls of the source. Rule as the data show it: active = GI50 up to about 1.1 µM and inactive = higher.

Legend:
Assay in all cases: NCI anticancer screen, dose series, 48 h
786-0 = system: 786-0
A498 = system: A498
ACHN = system: ACHN
COLO 205 = system: COLO 205
DU-145 = system: DU-145
HCT-116 = system: HCT-116
KM12 = system: KM12
LOX IMVI = system: LOX IMVI
NCI-H23 = system: NCI-H23
OVCAR-3 = system: OVCAR-3
PC-3 = system: PC-3
SF-268 = system: SF-268
SF-295 = system: SF-295
SK-MEL-2 = system: SK-MEL-2
SN12C = system: SN12C
T47D = system: T47D
U-251 = system: U-251
UACC-62 = system: UACC-62
HCC 2998 = system: HCC 2998
UO-31 = system: UO-31

| Structure (SMILES) | GI50 (786-0) | GI50 (A498) | GI50 (ACHN) | GI50 (COLO 205) | GI50 (DU-145) | GI50 (HCT-116) | GI50 (KM12) | GI50 (LOX IMVI) | GI50 (NCI-H23) | GI50 (OVCAR-3) | GI50 (PC-3) | GI50 (SF-268) | GI50 (SF-295) | GI50 (SK-MEL-2) | GI50 (SN12C) | GI50 (T47D) | GI50 (U-251) | GI50 (UACC-62) | GI50 (HCC 2998) | GI50 (UO-31) |
| --- | --- | --- | --- | --- | --- | --- | --- | --- | --- | --- | --- | --- | --- | --- | --- | --- | --- | --- | --- | --- |
| CCOP(=O)(/C=C\n1cc(C)c(=O)[nH]c1=O)OCC | > 100 µM (inactive) | > 100 µM (inactive) | > 100 µM (inactive) | > 100 µM (inactive) | > 100 µM (inactive) | > 100 µM (inactive) | > 100 µM (inactive) | > 100 µM (inactive) | > 100 µM (inactive) | > 100 µM (inactive) | > 100 µM (inactive) | > 100 µM (inactive) | > 100 µM (inactive) | > 100 µM (inactive) | > 100 µM (inactive) | > 100 µM (inactive) | > 100 µM (inactive) | > 100 µM (inactive) | – | – |
| Cn1c(CCC2(C)Cc3ccccc3C(=O)O2)cc2ccccc2c1=O (centres undefined) | 96.6 µM (inactive) | 25.1 µM (inactive) | – | 27.1 µM (inactive) | 23.7 µM (inactive) | – | 4.66 µM (inactive) | – | 24.7 µM (inactive) | 21 µM (inactive) | 17.7 µM (inactive) | – | > 100 µM (inactive) | 24.2 µM (inactive) | 44 µM (inactive) | 24.3 µM (inactive) | 45.5 µM (inactive) | > 10 µM (inactive) | 34.4 µM (inactive) | 15.7 µM (inactive) |
| CC1CC(c2ccccc2)Nc2nc3ccccc3n21 (centres undefined) | > 100 µM (inactive) | > 100 µM (inactive) | > 100 µM (inactive) | > 100 µM (inactive) | – | 66.4 µM (inactive) | > 100 µM (inactive) | > 100 µM (inactive) | > 100 µM (inactive) | > 100 µM (inactive) | > 100 µM (inactive) | > 100 µM (inactive) | > 100 µM (inactive) | > 100 µM (inactive) | – | > 100 µM (inactive) | > 100 µM (inactive) | > 100 µM (inactive) | – | 59.8 µM (inactive) |
| COc1ccc(-c2c(/C=N/OCC(=O)O)c3sc4ccccc4n3c2/C=N/OCC(=O)O)cc1 | > 50 µM (inactive) | – | > 50 µM (inactive) | > 50 µM (inactive) | > 50 µM (inactive) | > 50 µM (inactive) | > 50 µM (inactive) | > 50 µM (inactive) | > 50 µM (inactive) | > 50 µM (inactive) | > 50 µM (inactive) | > 50 µM (inactive) | > 50 µM (inactive) | > 50 µM (inactive) | > 50 µM (inactive) | > 50 µM (inactive) | > 50 µM (inactive) | > 50 µM (inactive) | > 50 µM (inactive) | 11.9 µM (inactive) |
| Oc1ccc(-c2cc(-c3c(O)cc(O)cc3O)on2)cc1 | 93.5 µM (inactive) | – | 36.4 µM (inactive) | > 10 µM (inactive) | 53.1 µM (inactive) | 42.5 µM (inactive) | 72.6 µM (inactive) | 55.1 µM (inactive) | > 100 µM (inactive) | > 100 µM (inactive) | 48 µM (inactive) | 44.3 µM (inactive) | 74.3 µM (inactive) | > 100 µM (inactive) | 80.5 µM (inactive) | 45.5 µM (inactive) | 64.7 µM (inactive) | 31.3 µM (inactive) | 66.4 µM (inactive) | 53 µM (inactive) |
| CSCCCNC(=O)c1csc([C@@H](CSC)NC(=O)CCNC(=O)[C@@H](NC(=O)OCC(Br)(Br)Br)C(C)O)n1 (some centres undefined) | > 100 µM (inactive) | > 100 µM (inactive) | > 100 µM (inactive) | > 100 µM (inactive) | > 100 µM (inactive) | > 100 µM (inactive) | > 100 µM (inactive) | > 100 µM (inactive) | > 100 µM (inactive) | > 100 µM (inactive) | > 100 µM (inactive) | > 100 µM (inactive) | > 100 µM (inactive) | > 100 µM (inactive) | > 100 µM (inactive) | – | > 100 µM (inactive) | > 100 µM (inactive) | > 100 µM (inactive) | > 100 µM (inactive) |
| O=C(NCCNCCO)N/N=C/c1ccc(Cl)cc1 | > 100 µM (inactive) | > 100 µM (inactive) | > 100 µM (inactive) | > 100 µM (inactive) | > 100 µM (inactive) | > 100 µM (inactive) | > 100 µM (inactive) | – | > 100 µM (inactive) | > 100 µM (inactive) | > 100 µM (inactive) | > 100 µM (inactive) | > 100 µM (inactive) | > 100 µM (inactive) | > 100 µM (inactive) | > 100 µM (inactive) | > 100 µM (inactive) | > 100 µM (inactive) | > 100 µM (inactive) | > 100 µM (inactive) |
| c1ccc2c(c1)SCCCSCCSCCCS2 | > 100 µM (inactive) | – | – | > 100 µM (inactive) | > 100 µM (inactive) | > 100 µM (inactive) | > 100 µM (inactive) | > 100 µM (inactive) | > 100 µM (inactive) | > 100 µM (inactive) | > 100 µM (inactive) | > 100 µM (inactive) | > 100 µM (inactive) | – | > 100 µM (inactive) | > 100 µM (inactive) | > 100 µM (inactive) | > 100 µM (inactive) | > 100 µM (inactive) | 60.5 µM (inactive) |
| CN(CCNC(=O)c1cn(C)c2c1ccc1ccccc12)CCNC(=O)c1cn(C)c2c1ccc1ccccc12 | 2.04 µM (inactive) | 10.6 µM (inactive) | 3.36 µM (inactive) | – | 2.1 µM (inactive) | 1.99 µM (inactive) | 1.79 µM (inactive) | 2.52 µM (inactive) | 3.14 µM (inactive) | 2.26 µM (inactive) | 2.42 µM (inactive) | 2.69 µM (inactive) | 3.05 µM (inactive) | 2.2 µM (inactive) | 2.64 µM (inactive) | – | 2.04 µM (inactive) | 2.7 µM (inactive) | 0.71 µM (active) | 1.91 µM (inactive) |
| S=c1[nH]nc(Cn2c3ccc(Br)cc3c3nc4ccccc4nc32)o1 | 34.3 µM (inactive) | 43.9 µM (inactive) | 39.6 µM (inactive) | 46.9 µM (inactive) | 36.6 µM (inactive) | 28.3 µM (inactive) | 47.3 µM (inactive) | – | 25.2 µM (inactive) | 29.9 µM (inactive) | 4.79 µM (inactive) | > 60.5 µM (inactive) | 42.9 µM (inactive) | 8.67 µM (inactive) | 51.9 µM (inactive) | 47.3 µM (inactive) | 0.944 µM (active) | 27.5 µM (inactive) | 38.8 µM (inactive) | 16.3 µM (inactive) |
| O=c1c(Cl)c(Cl)cnn1-c1ccccc1 | 5.64 µM (inactive) and 4.79 µM (inactive) | 14.9 µM (inactive) and 17.1 µM (inactive) | 7.11 µM (inactive) and 5.04 µM (inactive) | – | 14.7 µM (inactive) and 12.5 µM (inactive) | 2.29 µM (inactive) and 1.75 µM (inactive) | 8.91 µM (inactive) and 7.94 µM (inactive) | 1.8 µM (inactive) and 1.19 µM (inactive) | – | 2.03 µM (inactive) and 1.99 µM (inactive) | – | 5.05 µM (inactive) and 6.64 µM (inactive) | – | 3.94 µM (inactive) and 3.28 µM (inactive) | 2.06 µM (inactive) and 3.85 µM (inactive) | 4.33 µM (inactive) and 2.44 µM (inactive) | 3.51 µM (inactive) and 1.79 µM (inactive) | 1.67 µM (inactive) and 2.21 µM (inactive) | 3.42 µM (inactive) and 3.85 µM (inactive) | 4.18 µM (inactive) and 3.56 µM (inactive) |
| COC(=O)Nc1nc2cc(S(=O)(=O)N3CCOCC3)ccc2[nH]1 | > 100 µM (inactive) | > 100 µM (inactive) | > 100 µM (inactive) | > 100 µM (inactive) | > 100 µM (inactive) | > 100 µM (inactive) | 65.5 µM (inactive) | > 100 µM (inactive) | > 100 µM (inactive) | > 100 µM (inactive) | > 100 µM (inactive) | > 100 µM (inactive) | > 100 µM (inactive) | > 100 µM (inactive) | > 100 µM (inactive) | > 100 µM (inactive) | > 100 µM (inactive) | > 100 µM (inactive) | – | > 100 µM (inactive) |
| CN1CC[C@]2(c3cccc(O)c3)CC(=O)/C(=C/c3ccc(Cl)c(Cl)c3)[C@@H]1C2 | 1.05 µM (active) | 1.63 µM (inactive) | 1.15 µM (inactive) | 1.6 µM (inactive) | 1.65 µM (inactive) | 1.13 µM (inactive) | 0.575 µM (active) | 0.175 µM (active) | 1.53 µM (inactive) | – | 0.324 µM (active) | 1.71 µM (inactive) | 1.52 µM (inactive) | – | 1.04 µM (active) | – | 0.975 µM (active) | – | 1.41 µM (inactive) | 1.32 µM (inactive) |
| C=C1CCC[C@@H](C)C(O)[C@@H]2OC(=O)C(=C)[C@@H]2C[C@@H](OC(C)=O)[C@@]2(C)CC[C@@H]1O2 (some centres undefined) | 8.95 µM (inactive) | 9.84 µM (inactive) | 6.89 µM (inactive) | 6.37 µM (inactive) | 7.66 µM (inactive) | 6.97 µM (inactive) | 7.76 µM (inactive) | – | 8.09 µM (inactive) | 5.37 µM (inactive) | 8.39 µM (inactive) | 7.8 µM (inactive) | 11.1 µM (inactive) | 8.34 µM (inactive) | 8.51 µM (inactive) | 9.66 µM (inactive) | 9.57 µM (inactive) | 4.53 µM (inactive) | 7.89 µM (inactive) | 8.09 µM (inactive) |
| COCP1(=S)OC(C)CCN1C(C)C (centres undefined) | > 100 µM (inactive) | – | > 100 µM (inactive) | > 100 µM (inactive) | > 100 µM (inactive) | > 100 µM (inactive) | > 100 µM (inactive) | > 100 µM (inactive) | > 100 µM (inactive) | > 100 µM (inactive) | > 100 µM (inactive) | > 100 µM (inactive) | > 100 µM (inactive) | > 100 µM (inactive) | – | > 100 µM (inactive) | > 100 µM (inactive) | > 100 µM (inactive) | > 100 µM (inactive) | > 100 µM (inactive) |
